# Assay results published in paper PMC8887546, “Design and Synthesis of Brain Penetrant Glycopeptide Analogues of PACAP With Neuroprotective Potential for Traumatic Brain Injury and Parkinsonism” (Frontiers in drug discovery, 2022).
# What was measured:
# [1] = system: Sprague Dawley rats, 6-OHDA lesion; experiment: Amphetamine-induced rotations, mild 6-OHDA hemi-parkinsonian rat model (study 1); type: in vivo; conditions: mild lesion (25%), 15 mg/kg i.p. 6 h prior to and 24 h post-lesion, 2 + 4 weeks, vs vehicle
# Description: Rats were treated with 2LS98Lac or saline (vehicle) as outlined in the Schemes in Figures 9A,B via intraperitoneal (i.p.) injection (15 mg/kg). All animals were made hemi-parkinsonian with unilateral, striatal 6-hydroxydopamine (Sigma Aldrich, St. Louis, MO) injections. After surgery, behavioral assessments were done at 2- and 4-weeks post-surgery. 24 h after the last test animals were either euthanized and whole brains were harvested for future biochemical analysis or perfused and brains collected for immunohistochemistry and stereological assessment of tyrosine hydroxylase-positive (TH+) cells remaining in the SNc. In study 1: n = 16 each group were included, and all underwent the behavioral analysis: n = 16, and for the stereology in the SNc, n = 8 each group was used. […]
# In order to pharmacologically assess the degree of dopaminergic (DA) depletion in the lesioned side, animals were given amphetamine, an indirectly acting DA agonist and placed into a plexiglass cylinder (38 cm tall × 38 cm across) enclosed in an open field box ([Yue et al., 2011]). Dextro-amphetamine in sterile 0.9% saline (Sigma-Aldrich) was injected i.p. at 5 mg/kg, and rotations were recorded from above using Logitech HD web cameras connected to an Acer Aspire SWS-015 computer. An observer blinded to the groups counted rotations in both the ipsilateral and contralateral rotations for the entire 70 min period. […]
# [2] = system: C57BL/6 mice, diffuse TBI; experiment: Plasma cytokine measurement after TBI; type: in vivo, mouse; conditions: 10 mg/kg i.p. 30 min prior to TBI
# Description: 30 min prior to TBI or sham injury, mice were randomly assigned to a therapeutic group and received an intraperitoneal injection of 2LS80Mel (10 mg/kg) or sterile saline (0.25 ml). Groups were as follows: TBI-2LS80Mel n = 17; TBI-vehicle n = 17; sham n = 22 (vehicle n = 11, 2LS80Mel n = 11).
# For injury induction 24 h post-surgery, mice were re-anesthetized with 5% isoflurane delivered for 3 min. The cap was removed from the injury-hub assembly and the dura was visually inspected through the hub to ensure it was intact with no debris. The hub was then filled with normal saline and attached to an extension tube connected to the male end of the fluid percussion device (Custom Design and Fabrication, Virginia Commonwealth University, Richmond, VA). An injury of moderate severity for our injury model (1.4 atm) was administered by releasing the pendulum onto the fluid-filled cylinder following the return of a toe-pinch response. Sham mice underwent the same procedure except the pendulum was not released. Injured mice were monitored for presence of a forearm fencing response and righting reflex times were recorded as indicators of injury severity ([Hosseini and Lifshitz, 2009]). The righting reflex time is the total time from the initial impact until the mouse spontaneously rights itself from a supine position. The fencing response is a tonic posturing characterized by extension and flexion of opposite arms that has been validated as an overt indicator of injury severity ([Hosseini and Lifshitz, 2009]). The injury hub was removed, and the brain was inspected for uniform herniation and integrity of the dura. The incision was cleaned with saline and closed using sutures. Moderately brain-injured mice had righting reflex recovery times greater than 4 min and a positive fencing response. Righting reflex times for TBI-2LS80Mel mice were 477.13 ± 83.13 s and the righting reflex times for TBI-vehicle mice were 417.05 ± 107.47 s. […] After spontaneously righting, mice were placed in a heated recovery cage and monitored until they were ambulatory (approximately 5–15 min) before being returned to their piezoelectric sleep cage (see below). […]
# Approximately 75 μl of blood were centrifuged to collect approximately 40 μl of plasma from each animal at 2 and 14 days post-injury ([Saber et al., 2020]). Multiplex cytokine assays (MILLIPLEX MAP Mouse Cytokine/Chemokine Magnetic Bead Panel, Millipore Sigma, Burlington, MA) quantified interleukin (IL)-1β, IL-6, and tumor necrosis factor (TNF)-α in peripheral blood. […] Fluorescent intensity was measured on a Bio-Plex® 200 system (Bio-Rad Laboratories, Hercules, CA) and corresponded to the concentration of each analyte in plasma samples. Duplicate values were averaged and analyzed between groups. […]
SMILES,Cumulative contralateral amphetamine-induced rotations [1],Plasma IL-1β ([2]; 2 DPI),Plasma IL-6 ([2]; 2 DPI),Plasma TNF-α ([2]; 2 DPI),"Peripheral cytokines (IL-1β, IL-6, TNF-α) ([2]; 14 DPI, data not shown)"
[2H]C([2H])([2H])C([2H])(C([2H])([2H])[2H])[C@]([2H])(NC(=O)[C@H](C)NC(=O)[C@H](C)NC(=O)[C@H](CC(C)C)NC(=O)[C@H](Cc1ccc(O)cc1)NC(=O)[C@H](CCCCN)NC(=O)[C@H](CCCCN)NC(=O)[C@@]([2H])(NC(=O)[C@H](C)NC(=O)[C@H](CC(C)C)NC(=O)[C@H](CCC(N)=O)NC(=O)[C@H](CCCCN)NC(=O)[C@H](CCCNC(=N)N)NC(=O)[C@H](Cc1ccc(O)cc1)NC(=O)[C@H](CCCNC(=N)N)NC(=O)[C@H](CO)NC(=O)[C@H](Cc1ccc(O)cc1)NC(=O)[C@H](CO)NC(=O)[C@H](CC(=O)O)NC(=O)[C@@H](NC(=O)[C@H](Cc1ccccc1)NC(=O)[C@@H](NC(=O)CNC(=O)[C@H](CC(=O)O)NC(=O)[C@H](CO)NC(=O)[C@@H](N)Cc1c[nH]cn1)[C@@H](C)CC)[C@@H](C)O)C([2H])(C([2H])([2H])[2H])C([2H])([2H])[2H])C(=O)N[C@@H](CC(C)C)C(=O)N[C@@H](CO[C@@H]1O[C@H](CO)[C@@H](O[C@@H]2O[C@H](CO)[C@H](O)[C@H](O)[C@H]2O)[C@H](O)[C@H]1O)C(N)=O [Compound 2LS98Lac],significantly decreased,,,,
CC[C@H](C)[C@H](NC(=O)CNC(=O)[C@H](CC(=O)O)NC(=O)[C@H](CO)NC(=O)[C@@H](N)Cc1c[nH]cn1)C(=O)N[C@@H](Cc1ccccc1)C(=O)N[C@H](C(=O)N[C@@H](CC(=O)O)C(=O)N[C@@H](CO)C(=O)N[C@@H](Cc1ccc(O)cc1)C(=O)N[C@@H](CO)C(=O)N[C@@H](CCCNC(=N)N)C(=O)N[C@@H](Cc1ccc(O)cc1)C(=O)N[C@@H](CCCNC(=N)N)C(=O)N[C@@H](CCCCN)C(=O)N[C@@H](CCC(N)=O)C(=O)N[C@@H](CC(C)C)C(=O)N[C@@H](C)C(=O)N[C@H](C(=O)N[C@@H](CCCCN)C(=O)N[C@@H](CCCCN)C(=O)N[C@@H](Cc1ccc(O)cc1)C(=O)N[C@@H](CC(C)C)C(=O)N[C@@H](C)C(=O)N[C@@H](C)C(=O)N[C@H](C(=O)N[C@@H](CC(C)C)C(=O)N[C@@H](CO[C@@H]1O[C@H](CO[C@H]2O[C@H](CO)[C@H](O)[C@H](O)[C@H]2O)[C@@H](O)[C@H](O)[C@H]1O)C(N)=O)C(C)C)C(C)C)[C@@H](C)O [Compound 2LS80Mel],,no differences,no differences,no differences,no differences
